“And” between values parts separate entries of the source, which are not always exact repeats. Equal values may be shown once.
Legend:
TYK2 = TYK2 (Homo sapiens, UniProt P29597); conditions: cited from earlier work
[1] = Margin of safety study versus 13-wk rat NOAEL; format: in vivo
Excerpt: Results from the margin of safety study of lactose/MgSt-based formulations of Compound I are shown below in Table 17.

serum eosinophil count = assay: Phase 1 Part 3 serum (whole blood) differential eosinophil count; format: in vivo, human; conditions: 4 mg BID
Experimental: Whole blood hematology samples were collected prior to dosing in all patients at Day 1 (baseline) and on Day 10. Parameters including whole blood absolute and percent differential eosinophil count were determined and the resultant data was used to determine change from baseline, mean change from baseline, and mean placebo-corrected change from baseline (Compound I vs placebo).

[2] = APSD, MMAD, FPM and FPF determination (NGI, 90 L/min); format: physicochemical; conditions: for Fine particle mass (≤5 μm): in µg (unit assumed)
Experimental: Cup coating agent was prepared by mixing 150 mL of a mixture of Brij® 35, ethanol, and glycerol with 850 ml of ethanol.
The cup coating agent was prepared, and the NGI was assembled. The collection cups were then coated with cup coating agent and then proceeded to dry. A PALL® A/E 76 mm filter was placed into the back-up filter and attached to the NGI. Approximately 15 mL of diluent was added into the pre-separator insert. The flow rate was set to 90 L/min and the capsule was pierced. One dose was discharged into the NGI by initiating the time-controlled solenoid valve for 2.70 seconds. Sample diluent was added (10 mL for 0.2 mg and 2.0 mg doses and 20 mL for 4.0 mg doses), and the collection cups were agitated on the NGI Gentle Rocker for 10 minutes. The induction port was added 40 mL of sample diluent and was shaken for 1 minute. The pre-separator was added 50 mL of sample diluent and was shaken for 1 minute. The back-up filter was transferred to a crystallizing dish with 20 mL of sample diluent and was then sonicated for 5 minutes. The capsule from each determination was then transferred to a 20 mL volumetric flask and sample diluent was added. The suspension was then shaken and sonicated until fully dissolved. The resulting solution equilibrated under ambient conditions and was then made up to volume. Each Monodose RS01 was placed into an individual plastic bag and 20 mL of recovery solution was added. The bag was shaken by hand for 1 minute and filtered prior to HPLC analysis.

JAK2 = JAK2 (Homo sapiens, UniProt O60674); conditions: cited from earlier work
[3] = 4.0 mg BID vs 13-week rat study
[4] = Day 10, Mean of active subjects (n = 6)
[5] = Day 10, individual active subjects 13026, 13027, 13038, 13073, 13095, 13097 (c1-c6)
[6] = 2.0 mg capsule, 12 months 30/65
[7] = 2.0 mg capsule, 18 months 30/65
[8] = 2.0 mg capsule, 24 months 30/65
[9] = 4.0 mg capsule, 12 months 30/65

Sequence of JAK2 (O60674 whole entry): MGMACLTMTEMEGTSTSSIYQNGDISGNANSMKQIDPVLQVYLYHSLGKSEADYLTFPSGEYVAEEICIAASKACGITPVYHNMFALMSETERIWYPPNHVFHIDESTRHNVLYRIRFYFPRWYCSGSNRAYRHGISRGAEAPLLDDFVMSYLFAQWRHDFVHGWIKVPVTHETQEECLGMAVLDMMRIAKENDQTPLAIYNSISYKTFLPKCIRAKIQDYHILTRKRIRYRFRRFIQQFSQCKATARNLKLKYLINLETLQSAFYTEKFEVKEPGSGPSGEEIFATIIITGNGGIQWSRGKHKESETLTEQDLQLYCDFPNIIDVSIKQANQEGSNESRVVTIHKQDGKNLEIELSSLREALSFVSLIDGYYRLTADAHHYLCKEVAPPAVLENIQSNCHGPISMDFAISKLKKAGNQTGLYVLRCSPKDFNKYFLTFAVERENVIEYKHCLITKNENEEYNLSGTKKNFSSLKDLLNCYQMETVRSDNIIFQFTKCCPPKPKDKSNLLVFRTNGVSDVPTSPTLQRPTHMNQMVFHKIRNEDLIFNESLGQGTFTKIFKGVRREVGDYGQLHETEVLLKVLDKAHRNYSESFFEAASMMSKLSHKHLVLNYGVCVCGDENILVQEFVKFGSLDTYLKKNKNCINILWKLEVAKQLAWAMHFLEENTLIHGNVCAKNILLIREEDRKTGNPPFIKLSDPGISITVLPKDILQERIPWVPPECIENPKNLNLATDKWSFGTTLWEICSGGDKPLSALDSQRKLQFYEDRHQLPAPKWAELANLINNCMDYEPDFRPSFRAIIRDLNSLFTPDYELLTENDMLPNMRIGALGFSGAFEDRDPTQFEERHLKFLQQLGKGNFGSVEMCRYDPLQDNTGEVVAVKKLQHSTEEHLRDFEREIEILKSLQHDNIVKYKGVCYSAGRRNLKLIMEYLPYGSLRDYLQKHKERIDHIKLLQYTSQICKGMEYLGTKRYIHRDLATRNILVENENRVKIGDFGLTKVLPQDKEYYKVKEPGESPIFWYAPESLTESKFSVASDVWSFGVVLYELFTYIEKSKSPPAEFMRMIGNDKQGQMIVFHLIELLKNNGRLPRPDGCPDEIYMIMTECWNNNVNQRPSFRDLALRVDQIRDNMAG
Sequence of TYK2 (P29597 whole entry): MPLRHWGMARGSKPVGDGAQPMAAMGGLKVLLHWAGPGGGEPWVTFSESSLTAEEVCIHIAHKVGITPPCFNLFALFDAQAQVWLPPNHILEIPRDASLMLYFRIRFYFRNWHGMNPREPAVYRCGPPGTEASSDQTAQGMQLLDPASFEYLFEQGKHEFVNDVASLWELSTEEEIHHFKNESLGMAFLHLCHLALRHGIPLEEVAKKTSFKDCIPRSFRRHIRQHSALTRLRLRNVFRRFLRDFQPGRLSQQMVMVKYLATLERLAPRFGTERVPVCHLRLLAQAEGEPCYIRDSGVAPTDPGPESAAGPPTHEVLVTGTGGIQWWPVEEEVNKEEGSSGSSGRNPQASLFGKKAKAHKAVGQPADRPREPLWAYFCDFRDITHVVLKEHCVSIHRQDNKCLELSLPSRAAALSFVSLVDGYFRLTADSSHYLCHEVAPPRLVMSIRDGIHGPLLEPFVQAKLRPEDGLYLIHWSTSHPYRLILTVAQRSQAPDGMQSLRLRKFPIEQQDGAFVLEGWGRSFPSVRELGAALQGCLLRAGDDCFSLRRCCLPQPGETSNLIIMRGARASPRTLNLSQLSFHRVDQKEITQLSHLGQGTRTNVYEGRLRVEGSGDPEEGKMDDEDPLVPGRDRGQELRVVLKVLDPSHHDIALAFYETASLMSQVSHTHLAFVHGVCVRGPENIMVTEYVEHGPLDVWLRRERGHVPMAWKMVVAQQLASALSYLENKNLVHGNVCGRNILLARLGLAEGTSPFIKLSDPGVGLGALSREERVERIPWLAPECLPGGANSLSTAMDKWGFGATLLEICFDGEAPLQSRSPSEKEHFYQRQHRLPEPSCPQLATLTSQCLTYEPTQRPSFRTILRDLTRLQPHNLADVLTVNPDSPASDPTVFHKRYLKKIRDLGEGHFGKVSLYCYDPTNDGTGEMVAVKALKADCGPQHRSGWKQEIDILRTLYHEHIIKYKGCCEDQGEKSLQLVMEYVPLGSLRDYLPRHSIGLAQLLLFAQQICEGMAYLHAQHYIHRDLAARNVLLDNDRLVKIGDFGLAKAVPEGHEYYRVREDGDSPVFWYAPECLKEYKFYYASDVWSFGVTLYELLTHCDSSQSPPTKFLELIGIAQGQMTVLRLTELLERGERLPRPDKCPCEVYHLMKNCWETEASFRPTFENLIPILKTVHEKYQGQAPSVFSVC

For `Cn1c(=O)n([C@H]2CCCN(C(=O)CC#N)C2)c2nc(-c3cnn4ccccc34)ccc21` [Compound I, (S)-3-(3-(1-methyl-2-oxo-5-(pyrazolo[1,5-a]pyridine-3-yl)-1H-imidazo[4,5-b]pyridine-3(2H)-yl)piperidin-1-yl)-3-oxopropanenitrile], the “Inhibition of TYK2” value (TYK2) is listed as “potent inhibitor”, the “MoS versus inhalation toxicology study NOAELs, Lung exposure (mg/g lung)” value [1, 3] is listed as 3925 and the “MoS versus inhalation toxicology study NOAELs, Plasma (group mean AUC0-24)” value [1, 3] is listed as 85.6. The “Group mean AUC0-24 MoS (Phase 1 clinical study versus inhalation tox study NOAELs)” value ([1]; 4.0 mg BID vs 13-wk rat NOAEL) was 5.6, the “Lung dose of Compound I (mg/g) MoS” value ([1]; 4.0 mg BID vs 13-wk rat NOAEL, adjusted for respirability assuming 10%, 25% and 100% lung deposition in rat, NHP and human) was 25 and the “Active subjects with improvements (decreases) from baseline in whole blood eosinophil count” value (serum eosinophil count; Day 10 (5/6)) was 83%. The “Serum absolute differential eosinophil count, % Change from screening” value (serum eosinophil count; [4]) was −29%, the “Serum absolute differential eosinophil count, Change from Day 1 pre-dose” value (serum eosinophil count; [4]) was −0.14 cells 10^9/L and the “Serum absolute differential eosinophil count, Mean placebo-corrected change” value (serum eosinophil count; Day 10, active (n = 6) vs placebo (n = 2)) was −0.11 cells 10^9/L. For the same compound, the “Serum absolute differential eosinophil count, % Change from screening” value (serum eosinophil count; [5]) was −45% and +54% and −43% and −4% and −32% and −74%, the “Serum absolute differential eosinophil count, Change from Day 1 pre-dose” value (serum eosinophil count; [5]) was −0.30 cells 10^9/L and 0.13 cells 10^9/L and −0.13 cells 10^9/L and −0.03 cells 10^9/L and −0.14 cells 10^9/L and −0.34 cells 10^9/L and the “Serum absolute differential eosinophil count, Day 10 level” value (serum eosinophil count; Mean of active subjects (n = 6)) was 0.34 cells 10^9/L. For the same compound, the “Serum absolute differential eosinophil count, Day 10 level” value (serum eosinophil count; individual active subjects 13026, 13027, 13038, 13073, 13095, 13097 (c1-c6)) was 0.36 cells 10^9/L and 0.37 cells 10^9/L and 0.17 cells 10^9/L and 0.74 cells 10^9/L and 0.30 cells 10^9/L and 0.12 cells 10^9/L, the MMAD ([2]; 2.0 mg and 4.0 mg formulations aerosolized, Tables 11 and 12) was 1.8-2.0 μm and the FPF ([2]; 2.0 mg and 4.0 mg formulations, Tables 11 and 12, up to 24 months) was 73-78%. The “FPF % (FPM/Impactor dose)” value ([2]; 2.0 mg capsule, 1 month 30/65) was 75.4%, the MMAD ([2]; 2.0 mg capsule, 1 month 30/65) was 2.0 μm and the “Fine particle mass (≤5 μm)” value ([2]; 2.0 mg capsule, 1 month 30/65) was 1143.6. The “FPF % (FPM/Impactor dose)” value ([2]; 2.0 mg capsule, 1 month 40/75) was 75.9%, the MMAD ([2]; 2.0 mg capsule, 1 month 40/75) was 1.9 μm and the “Fine particle mass (≤5 μm)” value ([2]; 2.0 mg capsule, 1 month 40/75) was 1046.6. For the same compound, the “FPF % (FPM/Impactor dose)” value ([2]; 2.0 mg capsule, 3 months 30/65) was 77.2%, the MMAD ([2]; 2.0 mg capsule, 3 months 30/65) was 1.9 μm and the “Fine particle mass (≤5 μm)” value ([2]; 2.0 mg capsule, 3 months 30/65) was 1096.5. The “FPF % (FPM/Impactor dose)” value ([2]; 2.0 mg capsule, 3 months 40/75) was 77.2%, the MMAD ([2]; 2.0 mg capsule, 3 months 40/75) was 1.8 μm and the “Fine particle mass (≤5 μm)” value ([2]; 2.0 mg capsule, 3 months 40/75) was 1090.9. The “FPF % (FPM/Impactor dose)” value ([2]; 2.0 mg capsule, 6 months 30/65) was 74.9%, the MMAD ([2]; 2.0 mg capsule, 6 months 30/65) was 1.9 μm and the “Fine particle mass (≤5 μm)” value ([2]; 2.0 mg capsule, 6 months 30/65) was 1074.3. The “FPF % (FPM/Impactor dose)” value ([2]; 2.0 mg capsule, 6 months 40/75) was 74.7%, the MMAD ([2]; 2.0 mg capsule, 6 months 40/75) was 1.9 μm and the “Fine particle mass (≤5 μm)” value ([2]; 2.0 mg capsule, 6 months 40/75) was 1069.6. For the same compound, the “FPF % (FPM/Impactor dose)” value ([2]; 2.0 mg capsule, 9 months 30/65) was 76.6%, the MMAD ([2]; 2.0 mg capsule, 9 months 30/65) was 1.9 μm and the “Fine particle mass (≤5 μm)” value ([2]; 2.0 mg capsule, 9 months 30/65) was 1075.9. For the same compound, the “FPF % (FPM/Impactor dose)” value [2, 6] was 77.3%, the MMAD [2, 6] was 1.9 μm and the “Fine particle mass (≤5 μm)” value [2, 6] was 1098.4. The “FPF % (FPM/Impactor dose)” value [2, 7] was 77.0%, the MMAD [2, 7] was 1.9 μm and the “Fine particle mass (≤5 μm)” value [2, 7] was 1162.7. For the same compound, the “FPF % (FPM/Impactor dose)” value [2, 8] was 78.0%, the MMAD [2, 8] was 2.0 μm and the “Fine particle mass (≤5 μm)” value [2, 8] was 1083.1. For the same compound, the “FPF % (FPM/Impactor dose)” value ([2]; 2.0 mg capsule, Release) was 73.5%, the MMAD ([2]; 2.0 mg capsule, Release) was 2.0 μm and the “Fine particle mass (≤5 μm)” value ([2]; 2.0 mg capsule, Release) was 1006.7. For the same compound, the “FPF % (FPM/Impactor dose)” value ([2]; 4.0 mg capsule, 1 month 30/65) was 75.1%, the MMAD ([2]; 4.0 mg capsule, 1 month 30/65) was 1.8 μm and the “Fine particle mass (≤5 μm)” value ([2]; 4.0 mg capsule, 1 month 30/65) was 2181.6. For the same compound, the “FPF % (FPM/Impactor dose)” value ([2]; 4.0 mg capsule, 1 month 40/75) was 73.6%, the MMAD ([2]; 4.0 mg capsule, 1 month 40/75) was 1.9 μm and the “Fine particle mass (≤5 μm)” value ([2]; 4.0 mg capsule, 1 month 40/75) was 2130.4. The “FPF % (FPM/Impactor dose)” value ([2]; 4.0 mg capsule, 3 months 30/65) was 75.4%, the MMAD ([2]; 4.0 mg capsule, 3 months 30/65) was 1.8 μm and the “Fine particle mass (≤5 μm)” value ([2]; 4.0 mg capsule, 3 months 30/65) was 2167.8. For the same compound, the “FPF % (FPM/Impactor dose)” value ([2]; 4.0 mg capsule, 3 months 40/75) was 72.9%, the MMAD ([2]; 4.0 mg capsule, 3 months 40/75) was 1.9 μm and the “Fine particle mass (≤5 μm)” value ([2]; 4.0 mg capsule, 3 months 40/75) was 2059.2. For the same compound, the “FPF % (FPM/Impactor dose)” value ([2]; 4.0 mg capsule, 6 months 30/65) was 73.6%, the MMAD ([2]; 4.0 mg capsule, 6 months 30/65) was 1.9 μm and the “Fine particle mass (≤5 μm)” value ([2]; 4.0 mg capsule, 6 months 30/65) was 2098.3. The “FPF % (FPM/Impactor dose)” value ([2]; 4.0 mg capsule, 6 months 40/75) was 74%, the MMAD ([2]; 4.0 mg capsule, 6 months 40/75) was 1.8 μm and the “Fine particle mass (≤5 μm)” value ([2]; 4.0 mg capsule, 6 months 40/75) was 2090. The “FPF % (FPM/Impactor dose)” value ([2]; 4.0 mg capsule, 9 months 30/65) was 74%, the MMAD ([2]; 4.0 mg capsule, 9 months 30/65) was 1.8 μm and the “Fine particle mass (≤5 μm)” value ([2]; 4.0 mg capsule, 9 months 30/65) was 2116.2. For the same compound, the “FPF % (FPM/Impactor dose)” value [2, 9] was 76.5%, the MMAD [2, 9] was 1.9 μm and the “Fine particle mass (≤5 μm)” value [2, 9] was 2182.2. For the same compound, the “FPF % (FPM/Impactor dose)” value ([2]; 4.0 mg capsule, 18 months) was 75.4%, the MMAD ([2]; 4.0 mg capsule, 18 months) was 1.9 μm and the “Fine particle mass (≤5 μm)” value ([2]; 4.0 mg capsule, 18 months) was 2254.8. The “FPF % (FPM/Impactor dose)” value ([2]; 4.0 mg capsule, 24 months) was 76.7%, the MMAD ([2]; 4.0 mg capsule, 24 months) was 1.9 μm and the “Fine particle mass (≤5 μm)” value ([2]; 4.0 mg capsule, 24 months) was 2201.8. For the same compound, the “FPF % (FPM/Impactor dose)” value ([2]; 4.0 mg capsule, Release) was 75.3%, the MMAD ([2]; 4.0 mg capsule, Release) was 1.9 μm and the “Fine particle mass (≤5 μm)” value ([2]; 4.0 mg capsule, Release) was 2157.0. For the same compound, the “Inhibition of JAK2” value (JAK2) was “potent inhibitor”.

Source: patent US20240261224A1, “FORMULATION OF A PAN-JAK INHIBITOR” (KINASET THERAPEUTICS, INC., priority 2022, published 2024)
